Results taken from patent US20100113506A1, “COMPOSITION FOR PREVENTING OR TREATING THROMBUS- OR EMBOLUS- ASSOCIATED DISEASE” (priority 2007, published 2010).

Columns and labels:
[1] = tested on: platelet aggregation induced by ADP; assay: ADP-induced platelet aggregation in PRP of orally dosed rabbits (ex vivo); set-up: species or system Japanese white rabbits; conditions: ADP 3 μM, clopidogrel 20 mg/kg single oral dose; for Aggregation suppressibility: EPA-E 300 mg/kg oral once a day 4 weeks, blood 2 h after clopidogrel; for Effect on maximum aggregation rate: vs control group, EPA-E 300 mg/kg oral 4 weeks
Protocol: (§1) After the preliminary keeping, the rabbits were randomly divided into four groups, namely, control group, EPA-E group, clopidogrel group, and combination group. To the EPA-E group and the combination group, EPA-E was orally administered once a day for four weeks at a dose of 300 mg/kg. To the control group and the clopidogrel group, a 5% aqueous solution of gum arabic was orally administered instead of EPA-E. After the last EPA-E or gum arabic administration, the rabbits were fasted overnight, then clopidogrel was orally administered to the clopidogrel group and the combination group at a single dose of 20 mg/kg. To the control group and the EPA-E group, the 5% aqueous solution of gum arabic was orally administered instead of clopidogrel. Two hours after the clopidogrel administration, blood was sampled using a syringe containing citric acid in an amount of a tenth of the syringe volume, and the white blood cell count, red blood cell count, hemoglobin, hematocrit, and platelet count were measured on an automated hematology analyzer (type F-820 from Sysmex Corporation). The blood was centrifuged (at 150×g and at room temperature for 15 minutes) immediately after the above measurement to obtain platelet-rich plasma (PRP). The PRP was further centrifuged (at 1,500×g and at room temperature for 15 minutes) to collect platelet-poor plasma (PPP), and the platelet count was regulated with the PRP and PPP so that it might be […] (final level). The PRP was kept at 37° C. for four minutes, then an ADP (adenosine 5′-diphosphate) solution with a final concentration of 3 μM (MC Medical, Inc.) or a collagen solution with a final concentration of 6 μg/mL (Nycomed) was added thereto as an aggregation inducer so as to observe platelet aggregation using a platelet aggregation analyzer (MCM HEMA TRACER 313M from MC Medical, Inc.). The platelet aggregation activity was evaluated on the basis of maximum aggregation rate, and the suppressibility of platelet aggregation was calculated according to the following equation.
(§2) Aggregation suppressibility (%)={[maximum aggregation rate (mean) in control group]−[maximum aggregation rate (mean) in experimental group]}/[maximum aggregation rate (mean) in control group]×100.
(§3) The measurement results set forth for each group are each the mean of the values obtained in 8 or 9 cases plus/minus a standard error. The results were compared between the groups using the Tukey-Kramer method for multiple comparison testing, and the statistical significance was confirmed below a set level of 5%.

[2] = tested on: platelet aggregation induced by collagen; assay: Collagen-induced platelet aggregation in PRP of orally dosed rabbits (ex vivo); set-up: species or system Japanese white rabbits; conditions: collagen 6 μg/mL, clopidogrel 20 mg/kg single oral dose; for Effect on maximum aggregation rate: EPA-E 300 mg/kg oral 4 weeks; for Aggregation suppressibility: EPA-E 300 mg/kg oral once a day 4 weeks, blood 2 h after clopidogrel
Protocol: as §1, §2, §3

[3] = Prothrombin time (PT) in platelet-poor plasma; type: in vivo, Japanese white rabbits; conditions: vs control group; EPA-E 300 mg/kg oral 4 weeks, clopidogrel 20 mg/kg single oral dose
Protocol: (§4) After the preliminary keeping, the rabbits were randomly divided into four groups, namely, control group, EPA-E group, clopidogrel group, and combination group. To the EPA-E group and the combination group, EPA-E was orally administered once a day for four weeks at a dose of 300 mg/kg. To the control group and the clopidogrel group, a 5% aqueous solution of gum arabic was orally administered instead of EPA-E. After the last EPA-E or gum arabic administration, the rabbits were fasted overnight, then clopidogrel was orally administered to the clopidogrel group and the combination group at a single dose of 20 mg/kg. […] Two hours after the clopidogrel administration, blood was sampled using a syringe containing citric acid in an amount of a tenth of the syringe volume, and the white blood cell count, red blood cell count, hemoglobin, hematocrit, and platelet count were measured on an automated hematology analyzer (type F-820 from Sysmex Corporation). […] The platelet aggregation activity was evaluated on the basis of maximum aggregation rate, and the suppressibility of platelet aggregation was calculated according to the following equation. Platelet-poor plasma (PPP) was measured in terms of prothrombin time (PT) and activated partial thromboplastin time (APTT) as coagulation-related parameters. […]

[4] = Activated partial thromboplastin time (APTT) in platelet-poor plasma; type: in vivo, Japanese white rabbits; conditions: vs control group; EPA-E 300 mg/kg oral 4 weeks, clopidogrel 20 mg/kg single oral dose
Protocol: as §4

[5] = Bleeding time, ear puncture wound (method of Elg et al.); type: in vivo, Japanese white rabbits; conditions: rabbit ear puncture; EPA-E 300 mg/kg oral 4 weeks, clopidogrel 20 mg/kg single oral dose
[6] = Hematological parameters on automated hematology analyzer; type: in vivo, Japanese white rabbits; conditions: for Hematocrit / Hemoglobin / Platelet count / Red blood cell count / White blood cell count: mean ± standard error, blood 2 h after clopidogrel, EPA-E 300 mg/kg 4 weeks, clopidogrel 20 mg/kg; for Change of white blood cell count, red blood cell count, hemoglobin, hematocrit and platelet count: vs control group
Protocol: After the preliminary keeping, the rabbits were randomly divided into four groups, namely, control group, EPA-E group, clopidogrel group, and combination group. To the EPA-E group and the combination group, EPA-E was orally administered once a day for four weeks at a dose of 300 mg/kg. To the control group and the clopidogrel group, a 5% aqueous solution of gum arabic was orally administered instead of EPA-E. After the last EPA-E or gum arabic administration, the rabbits were fasted overnight, then clopidogrel was orally administered to the clopidogrel group and the combination group at a single dose of 20 mg/kg. To the control group and the EPA-E group, the 5% aqueous solution of gum arabic was orally administered instead of clopidogrel. Two hours after the clopidogrel administration, blood was sampled using a syringe containing citric acid in an amount of a tenth of the syringe volume, and the white blood cell count, red blood cell count, hemoglobin, hematocrit, and platelet count were measured on an automated hematology analyzer (type F-820 from Sysmex Corporation). The blood was centrifuged (at 150×g and at room temperature for 15 minutes) immediately after the above measurement to obtain platelet-rich plasma (PRP). […] The platelet aggregation activity was evaluated on the basis of maximum aggregation rate, and the suppressibility of platelet aggregation was calculated according to the following equation. The measurement results set forth for each group are each the mean of the values obtained in 8 or 9 cases plus/minus a standard error. The results were compared between the groups using the Tukey-Kramer method for multiple comparison testing, and the statistical significance was confirmed below a set level of 5%.

Row | SMILES | Aggregation suppressibility [1] [%] | Effect on maximum aggregation rate [1] | Effect on maximum aggregation rate [2] | Aggregation suppressibility [2] [%] | PT (prothrombin time) change [3] | APTT (activated partial thromboplastin time) change [4] | Effect on bleeding time [5] | Hematocrit [6] [%] | Hemoglobin [6] [g/dL] | Platelet count [6] | Red blood cell count [6] | White blood cell count [6] | Change of white blood cell count, red blood cell count, hemoglobin, hematocrit and platelet count [6]
1 | COC(=O)[C@H](c1ccccc1Cl)N1CCc2sccc2C1 [clopidogrel, (+)-(s)-methyl 2-(2-chlorophenyl)-2-(4,5,6,7-tetrahydrothieno[3,2-c]pyridin-5-yl) acetate monosulfate] | 29 | reduced the maximum aggregation rate | no differences were seen which were statistically significant | 7 | neither PT (prothrombin time) nor APTT (activated partial thromboplastin time) had a statistically significant change | neither PT (prothrombin time) nor APTT (activated partial thromboplastin time) had a statistically significant change | prolonged the bleeding time significantly in a statistical sense | 39.3 ± 1.2 | 13.8 ± 0.4 | 38.0 ± 2.3 ×10^4/μL | 584 ± 17 ×10^4/μL | 58.0 ± 4.8 ×10^2/μL | had not a statistically significant change
2 | CC/C=C\C/C=C\C/C=C\C/C=C\C/C=C\CCCC(=O)OCC [EPA-E, ethyl icosapentate] | 0 | had no influence on the maximum aggregation rate | reduced the maximum aggregation rate significantly in a statistical sense | 29 | neither PT (prothrombin time) nor APTT (activated partial thromboplastin time) had a statistically significant change | neither PT (prothrombin time) nor APTT (activated partial thromboplastin time) had a statistically significant change | had no influence on the bleeding time | 37.3 ± 0.6 | 13.1 ± 0.2 | 30.4 ± 1.2 ×10^4/μL | 563 ± 10 ×10^4/μL | 58.8 ± 5.2 ×10^2/μL | had not a statistically significant change
